Source: patent US20250129073A1, “INHIBITOR OF RECEPTOR-INTERACTING PROTEIN KINASE 1, AND PREPARATION METHOD AND USE THEREFOR” (CHINA PHARMACEUTICAL UNIVERSITY, priority 2021, published 2025)

Legend:
RIPK1 kinase = RIPK1 kinase (Homo sapiens (Human), UniProt Q13546); assay: RIPK1 kinase inhibitory assay (ADP-Glo); assay type: biochemical; details: for inhibition at 10 µM: 10 μM compound, read-out: Inhibition rate of RIPK1 at 10 μM (%)
Experimental: Materials and Instruments: ADP-Glo kinase kit (purchased from Promega), RIPK1 GST-Th-Tag (purchased from Bps Bioscience), MBP substrate (purchased from Millipore), nunc 384-well plate, ATP fluorescence analyzer Paradigm detection platform (purchased from Beckman coulter)
The compounds were diluted in DMSO and configured into a solution with a final concentration of 10 mM; Dilute RIP1 kinase from 140 ng/μL to 20 ng/μL for use. Dilute 10 mM of ATP to 100 μM for later use; Dilute 5 mg/mL of MBP to 1 mg/mL for later use. Appropriate embodiments were added into the well of the 384-well plate, 10 μl […] ATP was evenly mixed with 1 μl 1 mg/mL MB P, the mixed solution was added to the well, and 2 μL […] RIP1 kinase was added to the hole, and then incubated at room temperature for 1 h. Subsequently, 5 μL ADP-Glo reagent was added to each well and incubated at room temperature for 40 min. Then, 10 μL ADP-Glo detection reagent was added to each well and incubated at room temperature for 30 min. Finally, the RLU value (relative light unit) of each well was measured by ATP fluorometer, and each sample was repeated twice. Inhibition rate=(RLU value of blank group−RLU value of drug administration group)/RLU value of blank group×100%.

U937 cells = assay: Cell anti-necroptosis activity assay (LPS + Z-VAD-FMK, CCK8); assay type: cell-based; details: Homo sapiens, U-937; PMA-differentiated U937, LPS 100 ng/ml + Z-VAD-FMK 20 μM, 24 h; read-out: EC50 of inhibition of necroptosis
Experimental: Materials: U937 cell line (human myeloid leukemia cells), RPMI 1640 medium (purchased from Gibco, USA), penicillin-streptomycin double antibody (purchased from Gibco, USA), fetal bovine serum (purchased from genetic, USA), tetradecanoylphorbol acetate (purchased from biyuntian Biotechnology Co., Ltd.), CCK8 cell proliferation detection kit (purchased from biyuntian Biotechnology Co., Ltd), Z-VAD-FMK (from APExBIO, USA) and LPS (from Sigma, USA).
U937 cells were cultured in RPMI 1640 containing 10% heat inactivated fetal bovine serum and 1% penicillin-streptomycin in a constant temperature cell incubator at 37° C. and 5% CO2, and subcultured every 1-2 days. Human monocytic cell line U937 cells could be induced to differentiate into mature monocytes/macrophages after stimulation with tetradecanoylphorbol acetate (PMA). The cells in the logarithmic growth phase were seeded in 96 well plates at a density of 4×10^4 cells/well and cultured. PMA 100 ng/ml was added for 24 h, and then the fresh medium was changed. The necroptosis model was constructed by stimulation of LPS and caspase inhibitor Z-VAD-FMK. In the experimental groups, LPS (100 ng/ml) was added for 1 hour, and then the solvent control (DMSO) or different concentrations of compounds to be tested (30 μM, 10 μM, 3 μM, 1 μM, 300 nM, 100 nM, 30 nM 7 concentrations in total) for 1 h, and then the experimental groups were treated with caspase inhibitor Z-VAD-FMK (20 μM). The cell viability was detected after 24 h of culture. The control groups were not treated with LPS, drugs and Z-VAD-FMK. No cells were added to the blank hole, only the culture medium. Each group is set with 4 parallel. CCK8 cell proliferation assay kit was used to detect the cell viability and survival rate, and the operation was carried out according to the kit instructions. The cell supernatant was added with 10 μL CCK8 detection reagent, and the cell absorbance (450 nm) was detected by a microplate reader after 0.5 h. Calculate the cell death rate (%)=(average absorbance of control well−average absorbance of experimental group)/(average absorbance of control well−average absorbance of the blank well)×100. Finally, the half effective concentration (EC50) of the drug was calculated by GraphPad Prism 7.0® software.

[1] = system: rat model of ischemic stroke (MCAO); assay: Rat MCAO cerebral ischemia/reperfusion model of ischemic stroke; assay type: in vivo; details: tMCAO rats
Experimental: Animals: SPF-grade male Sprague Dawley (SD) rats (purchased from Beijing Weitonglihua Experimental Animal Technology Co., Ltd.). Rats were fed with a free diet, 12 h: 12 h circadian rhythm.
Material: 2,3,5-Triphenyltetrazolium chloride (purchased from Beijing Solebo Technology Co., Ltd.), N,N-Dimethylacetamide (purchased from Shanghai Aladdin Biochemical Technology Co., Ltd.), castor oil polyoxyethylene ether (purchased from Shanghai McLean Biochemical Technology Co., Ltd.), sodium chloride (purchased from Bioengineering (Shanghai) Co., Ltd.), isoflurane (purchased from Shenzhen ruiwode Life Technology Co., Ltd.), and Sodium dihydrogen phosphate (purchased from Sinopharm group), disodium hydrogen phosphate (purchased from Sinopharm group), paraformaldehyde (purchased from biotechnology (Shanghai) Co., Ltd.) and thread bolt (purchased from Beijing Xinong Technology Co., Ltd.).
Methods: A rat model of ischemic stroke was established by middle cerebral artery occlusion (MCAO) of cerebral ischemia/reperfusion: Healthy male SD rats (weighing 260±40 g) were anesthetized with 5% isoflurane and maintained with 1.5%-2% isoflurane. The rats were fixed in the supine position, and the right common carotid artery, internal carotid artery and external carotid artery were separated through the median neck incision and threaded for standby. The proximal end of the common carotid artery and the external carotid artery were ligated, and the internal carotid artery was clamped with an artery clamp. The suture plug was cut and inserted at about 0.5 cm from the bifurcation of the common carotid artery. The artery clamp was released, and the suture plug was delivered until the blood flow of the middle cerebral artery was blocked. After 60 minutes of ischemia, the suture plug was removed to restore blood flow. The rectal temperature was maintained at 37±0.5° C. during the operation. After 48 hours of ischemia/reperfusion, the neurological function was evaluated by modified neurological severity score (MNSs). The cerebral infarction volume was detected by TTC staining, and the brain water content was detected to evaluate the cerebral edema.

[2] = 2.5 mg/kg and 5 mg/kg bid, 48 h after ischemia/reperfusion

Chain of RIPK1 kinase (Q13546 whole entry): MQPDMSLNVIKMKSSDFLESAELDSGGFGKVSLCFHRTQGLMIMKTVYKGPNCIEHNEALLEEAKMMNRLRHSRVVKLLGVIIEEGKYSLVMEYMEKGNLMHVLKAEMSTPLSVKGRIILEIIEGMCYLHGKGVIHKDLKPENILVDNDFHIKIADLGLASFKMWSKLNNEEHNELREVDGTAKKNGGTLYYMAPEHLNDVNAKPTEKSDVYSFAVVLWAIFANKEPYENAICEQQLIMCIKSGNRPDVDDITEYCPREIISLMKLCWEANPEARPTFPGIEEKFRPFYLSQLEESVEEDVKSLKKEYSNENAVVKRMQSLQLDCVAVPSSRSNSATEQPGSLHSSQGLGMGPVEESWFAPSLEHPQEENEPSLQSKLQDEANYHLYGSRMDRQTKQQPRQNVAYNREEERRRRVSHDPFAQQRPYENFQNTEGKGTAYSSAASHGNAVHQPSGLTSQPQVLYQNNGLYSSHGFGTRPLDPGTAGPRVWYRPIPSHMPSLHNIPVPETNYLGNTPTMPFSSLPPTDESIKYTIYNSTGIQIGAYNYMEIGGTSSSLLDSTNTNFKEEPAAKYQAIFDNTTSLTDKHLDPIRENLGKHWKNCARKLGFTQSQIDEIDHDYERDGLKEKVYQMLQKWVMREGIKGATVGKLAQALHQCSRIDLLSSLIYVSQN

**Q.** `Cn1ccc2ccc(C(=O)N3CCC4(CC3)CCN(Cc3ccccc3F)C4=O)cc21` [Compound 50, 2-(2-fluorobenzyl)-8-(1-methyl-1H-indole-6-carbonyl)-2,8-diazaspiro decan-1-one] was tested. Which IC50 (RIPK1 kinase) did it give?
**A.** 102 nM

**Q.** What about the inhibition at 10 µM (RIPK1 kinase) of the same molecule?
**A.** > 50%

**Q.** What about the EC50 (U937 cells) of the same molecule?
**A.** 1560 nM

**Q.** For `O=C(c1ccccc1)N1CCC2(CC1)CCN(Cc1ccccc1F)C2=O` [Compound 31, 8-benzoyl-2-(2-fluorobenzyl)-2,8-diazaspiro[4.5]decan-1-one], which nerve injury score [1, 2] is on record?
**A.** significantly reduce

**Q.** What about the “water content in the ischemic side” value [1, 2] of the same molecule?
**A.** significantly reduce

**Q.** What about the infarct volume ([1]; 2.5 mg/kg and 5 mg/kg bid, 48 h after ischemia/reperfusion, TTC staining) of the same molecule?
**A.** significantly reduce

**Q.** And the “protective effect on cerebral ischemia injury compared with edaravone” value ([1]; 5 mg/kg bid vs positive control edaravone 5 mg/kg QD)?
**A.** stronger protective effect

**Q.** What about the IC50 (RIPK1 kinase) of the same molecule?
**A.** 186 nM

**Q.** What about the inhibition at 10 µM (RIPK1 kinase) of the same molecule?
**A.** > 50%

**Q.** And the EC50 (U937 cells)?
**A.** 1050 nM
